Measured values from PubChem BioAssay AID2060887 (Molecular Pharmacology Branch, DTP, NCI, 2025).

Test system: 782815-120-R-J1-PDC complex spheroid viability
Test: Anticancer human tumor 782815-120-R-J1-PDC patient-derived colon adenocarcinoma cell line growth inhibition [RAS]
Conditions: for IC50: curve of first compound; for viability, T/C: stronger effect = lower value
Excerpt: RAS pathway inhibitors in Combinations in Complex Spheroids
A high-throughput screen of multi-cell type tumor spheroids was designed to identify active combinations of RAS pathway inhibitors and targeted small molecules. Complex spheroids include a stromal component modeled by human endothelial cells (HUVEC) and fibroblasts modeled by human mesenchymal stem cells (MSCs). The concentration ranges selected for each drug and investigational agent were based upon clinically achievable concentrations if the clinical Cmax of the agent was known.
Compounds. The drugs and investigational agents: abemaciclib (NSC768073), cobimetinib (NSC768068), divarasib (GDC6063, NSC841802), docetaxel (NSC628503), GDC-1971 (RLY-1971, NSC841576), gemcitabine (NSC613327), inavolisib (NSC800729), ipatasertib (NSC767898), KB-0742 (NSC834161), MRTX-1133 (NSC836407), osimertinib (NSC779217), RMC-4630 (NSC839698), RMC-6236 (NSC851965), RMC-6291 (NSC852671), Ro-3306 (NSC812927), sapanisertib (NSC764658), SN-38 (NSC673596), staurosporine (NSC755774), SY5609 (NSC837396), and tovorafenib (DAY101, NSC766906), were obtained from the National Cancer Institute (NCI) Developmental Therapeutics Program Chemical Repository. The FDA-approved anticancer drug set is available from the NCI Developmental Therapeutics Program. […] The stock solutions were prepared in dimethyl sulfoxide (DMSO, Sigma-Aldrich, St. Louis, MO, cat. D2650) at 800-fold the tested concentration and stored at -70 degrees C prior to their use. All drugs and investigational agents were tested over a range starting from a high concentration at or near the clinical Cmax and decreasing in half-log increments. If the clinical Cmax for an agent had not been determined, the highest concentration tested was 10 microM.
Cell Culture. All cells were maintained in an incubator at 37 degrees C and 5% CO2 with 95% humidity. The PDC lines were cultured according to standard operating procedures established by the NCI PDMR. All PDCs were thawed and cultured in Matrigel-coated flasks prepared with a working solution of 1X Ham's F-12 nutrient mix, without supplementation (Invitrogen, Waltham, MA, cat. 11765054), 100 U/mL penicillin-streptomycin (Invitrogen, cat. 15140122), and 2.5% Matrigel (Corning Inc., Corning, NY, cat. 354248) for the first three passages. The 362531-283-R-J2-PDC and 782815-120-R-J1-PDC lines were cultured in 6C/Colon 1B media, which includes advanced DMEM/F-12 (Thermo Fisher Scientific, cat. 12634028), 10 mM HEPES (Thermo Fisher Scientific, cat. 15630080), 1X GlutaMAX supplement (Thermo Fisher Scientific, cat. 35050061), 0.1 mg/mL primocin (InvivoGen, San Diego, CA, cat. ant-pm-2), 10% defined fetal bovine serum, heat inactivated (HyClone Laboratories Inc., Logan, UT, cat. SH30070.03HI), 50% L-WRN conditioned media (ATCC, cat. CRL-3276), 1.25 mM N-Acetyl-L-cysteine (Sigma-Aldrich, cat. A9165), 10 mM nicotinamide (Sigma-Aldrich, cat. N0636), 1X B-27 supplement (Thermo Fisher Scientific, cat. 17504044), 1X N-2 supplement (Thermo Fisher Scientific, cat. 17502048), 50 ng/mL human EGF (Thermo Fisher Scientific, cat. PHG0311), and 10 microM Y-27632 dihydrochloride (Tocris Bioscience, cat. 1254). The K12877-001-R-J1-PDC line was cultured in 6I media, which includes all 6C/Colon 1B media plus 10 ng/mL human FGF-10 (PeproTech, cat. 100-26), 1 ng/mL human FGF-2 (PeproTech, cat. 100-18B), 1 µM prostaglandin E2 (Tocris Bioscience, cat. 2296), […] hydrocortisone (Sigma-Aldrich, cat. H4001), and […] bovine insulin (Sigma-Aldrich, cat. I6634). The K86415-001-R-J1-PDC line was cultured in 6D media, which includes all 6C/Colon 1B media components minus the L-WRN conditioned media. The 485176-168-R4-J1-PDC was cultured in PANC media, which includes all 6C/Colon 1B media plus 100 ng/mL human FGF-10 (PeproTech, cat. 100-26), 500 nM SB-431542 (Selleckchem, cat. S1067), and 10 nM gastrin (Tocris Bioscience, cat. 3006). […]

[1] = second compound 0.0316 µM, first compound 0.0316 µM
[2] = second compound 0.0316 µM, first compound 0.1 µM
[3] = second compound 0.0316 µM, first compound 0.316 µM
[4] = second compound 0.0316 µM, first compound 1 µM
[5] = second compound 0.1 µM, first compound 0.0316 µM
[6] = second compound 0.1 µM, first compound 0.1 µM
[7] = second compound 0.1 µM, first compound 0.316 µM
[8] = second compound 0.1 µM, first compound 1 µM
[9] = second compound 0.316 µM, first compound 0.0316 µM
[10] = second compound 0.316 µM, first compound 0.1 µM
[11] = second compound 0.316 µM, first compound 0.316 µM
[12] = second compound 0.316 µM, first compound 1 µM
[13] = second compound 1 µM, first compound 0.0316 µM
[14] = second compound 1 µM, first compound 0.1 µM
[15] = second compound 1 µM, first compound 0.316 µM
[16] = second compound 1 µM, first compound 1 µM
[17] = second compound 3.16 µM, first compound 0.0316 µM
[18] = second compound 3.16 µM, first compound 0.1 µM
[19] = second compound 3.16 µM, first compound 0.316 µM
[20] = second compound 3.16 µM, first compound 1 µM
[21] = second compound 10 µM, first compound 0.0316 µM
[22] = second compound 10 µM, first compound 0.1 µM
[23] = second compound 10 µM, first compound 0.316 µM
[24] = second compound 10 µM, first compound 1 µM
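Note: spheroids exposed to compounds for 7 days before reading.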
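Throughout, for viability, T/C: 100% = DMSO vehicle control viability.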

SMILES: CC1(O)CCCC1n1c(=O)c(C(F)F)cc2cnc(NC3CCN(S(C)(=O)=O)CC3)nc21 (centres undefined) + C#Cc1c(F)ccc2cc(O)cc(-c3ncc4c(N5CC6CCC(C5)N6)nc(OCC56CCCN5CC(F)C6)nc4c3F)c12
- IC50 (second compound 0.0316 µM): 6.05 µM
- IC50 (second compound 0.1 µM): 4.76 µM
- IC50 (second compound 0.316 µM): 5.35 µM
- IC50 (second compound 1 µM): 5.29 µM
- IC50 (second compound 3.16 µM): 5.79 µM
- IC50 (second compound 10 µM): 4.9 µM
- viability, T/C [1]: 73.7%
- viability, T/C [2]: 74.5%
- viability, T/C [3]: 65.7%
- viability, T/C [4]: 76%
- viability, T/C (second compound 0.0316 µM, first compound 3.16 µM): 68.8%
- viability, T/C (second compound 0.0316 µM, first compound 10 µM): 35.1%
- viability, T/C [5]: 83.1%
- viability, T/C [6]: 75.2%
- viability, T/C [7]: 68.8%
- viability, T/C [8]: 62.8%
- viability, T/C (second compound 0.1 µM, first compound 3.16 µM): 66.4%
- viability, T/C (second compound 0.1 µM, first compound 10 µM): 32.6%
- viability, T/C [9]: 78.6%
- viability, T/C [10]: 79.7%
- viability, T/C [11]: 69.2%
- viability, T/C [12]: 69.2%
- viability, T/C (second compound 0.316 µM, first compound 3.16 µM): 65.6%
- viability, T/C (second compound 0.316 µM, first compound 10 µM): 34.4%
- viability, T/C [13]: 88.5%
- viability, T/C [14]: 77.7%
- viability, T/C [15]: 75.4%
- viability, T/C [16]: 69.5%
- viability, T/C (second compound 1 µM, first compound 3.16 µM): 70.7%
- viability, T/C (second compound 1 µM, first compound 10 µM): 28.6%
- viability, T/C [17]: 77.5%
- viability, T/C [18]: 67.4%
- viability, T/C [19]: 68.7%
- viability, T/C [20]: 71%
- viability, T/C (second compound 3.16 µM, first compound 3.16 µM): 79.1%
- viability, T/C (second compound 3.16 µM, first compound 10 µM): 29.5%
- viability, T/C [21]: 70.7%
- viability, T/C [22]: 65.8%
- viability, T/C [23]: 65.5%
- viability, T/C [24]: 67.3%
- viability, T/C (second compound 10 µM, first compound 3.16 µM): 74.3%
- viability, T/C (second compound 10 µM, first compound 10 µM): 19.5%

SMILES: CCN1CCN(Cc2ccc(Nc3ncc(F)c(-c4cc(F)c5nc(C)n(C(C)C)c5c4)n3)nc2)CC1 + C#Cc1c(F)ccc2cc(O)cc(-c3ncc4c(N5CC6CCC(C5)N6)nc(OCC56CCCN5CC(F)C6)nc4c3F)c12
- IC50 (second compound 0.0316 µM): > 1 µM
- IC50 (second compound 0.1 µM): > 1 µM
- IC50 (second compound 0.316 µM): > 1 µM
- IC50 (second compound 1 µM): > 1 µM
- IC50 (second compound 3.16 µM): > 1 µM
- IC50 (second compound 10 µM): > 1 µM
- viability, T/C (second compound 0.0316 µM, first compound 0.00316 µM): 103%
- viability, T/C (second compound 0.0316 µM, first compound 0.01 µM): 105%
- viability, T/C [1]: 112%
- viability, T/C [2]: 102%
- viability, T/C [3]: 109%
- viability, T/C [4]: 123%
- viability, T/C (second compound 0.1 µM, first compound 0.00316 µM): 107%
- viability, T/C (second compound 0.1 µM, first compound 0.01 µM): 104%
- viability, T/C [5]: 95.8%
- viability, T/C [6]: 104%
- viability, T/C [7]: 113%
- viability, T/C [8]: 130%
- viability, T/C (second compound 0.316 µM, first compound 0.00316 µM): 108%
- viability, T/C (second compound 0.316 µM, first compound 0.01 µM): 101%
- viability, T/C [9]: 100%
- viability, T/C [10]: 110%
- viability, T/C [11]: 106%
- viability, T/C [12]: 119%
- viability, T/C (second compound 1 µM, first compound 0.00316 µM): 110%
- viability, T/C (second compound 1 µM, first compound 0.01 µM): 109%
- viability, T/C [13]: 108%
- viability, T/C [14]: 103%
- viability, T/C [15]: 111%
- viability, T/C [16]: 113%
- viability, T/C (second compound 3.16 µM, first compound 0.00316 µM): 103%
- viability, T/C (second compound 3.16 µM, first compound 0.01 µM): 99.2%
- viability, T/C [17]: 101%
- viability, T/C [18]: 104%
- viability, T/C [19]: 128%
- viability, T/C [20]: 119%
- viability, T/C (second compound 10 µM, first compound 0.00316 µM): 109%
- viability, T/C (second compound 10 µM, first compound 0.01 µM): 107%
- viability, T/C [21]: 95.3%
- viability, T/C [22]: 107%
- viability, T/C [23]: 120%
- viability, T/C [24]: 125%
